Data reported in patent US4670542A, “New antibiotics, preparation and use of and intermediates therefor” (Bayer Aktiengesellschaft, priority 1983, dated 1987).
Starred links: 1 amine or outer side, 2 acyl side, 3 side chain; linkers in the order of their positions; H or OH if unused. Non-standard residues stand in square brackets, D forms with d. Residues, ends and D or L forms follow the SMILES beside them. ξ: configuration not given here. X1 = Cn1c(=NC(N)=O)ccn(C2SC(C(O)C(N[*:1])C(=O)[*:2])C(O)C2O)c1=O; Orn(N5-OH,N5-Ac) = CC(=O)N(O)CCC[C@H](N)C(=O)O; ξT = CC(O)C(N)C(=O)O; ξA = CC(N)C(=O)O

Key:
Assay in all cases: Hole test, inhibiting areola diameter, medium DST agar
Type in all cases: cell-based
E. coli 14 = test system: E. coli 14
From the text: (§1) Activity against the germs listed below is found in vitro, on the basis of the diameter of the inhibiting areola.

Prot. 1017 = conditions: 1000 ug/ml
From the text: as §1

E. coli T 7 = test system: E. coli T 7; design: unit not given here
From the text: as §1

Klebs. 57 USA = conditions: 100 ug/ml
From the text: as §1

Staph. 133 = conditions: 1000 ug/ml
From the text: as §1

Row | SMILES | Inhibiting areola diameter E. coli 14 (E. coli 14; 1000 ug/ml) | Inhibiting areola diameter Prot. 1017 (Prot. 1017) | Inhibiting areola diameter E. coli T 7 (E. coli T 7; 1000 ug/ml) | Inhibiting areola diameter E. coli 14 (E. coli 14; 10 ug/ml) | Inhibiting areola diameter E. coli 14 (E. coli 14; 100 ug/ml) | Inhibiting areola diameter E. coli T 7 (E. coli T 7; 10 ug/ml) | Inhibiting areola diameter E. coli T 7 (E. coli T 7; 100 ug/ml) | Inhibiting areola diameter Klebs. 57 USA (Klebs. 57 USA) | Inhibiting areola diameter Staph. 133 (Staph. 133)
1 | CC(=O)N(O)CCC[C@H](NC(=O)[C@H](CCCN(O)C(C)=O)NC(=O)[C@@H](N)CCCN(O)C(C)=O)C(=O)NC(C(=O)O)C(O)C1SC(n2ccc(=NC(N)=O)n(C)c2=O)C(O)C1O (some centres unmarked) [Compound 13] | 20 | 20 | 19 | – | – | – | – | – | –
2 | CC(=O)N(O)CCC[C@H](NC(=O)[C@H](CCCN(O)C(C)=O)NC(=O)[C@@H](N)CCCN(O)C(C)=O)C(=O)NC(C)C(=O)NC(C(=O)O)C(O)C1SC(n2ccc(=NC(N)=O)n(C)c2=O)C(O)C1O (some centres unmarked) [Compound 9, Peptidyl-nucleoside] (H-[Orn(N5-OH,N5-Ac)][Orn(N5-OH,N5-Ac)][Orn(N5-OH,N5-Ac)][ξA][X1]-OH) | – | – | – | 30 | 34 | 28 | 34 | – | –
3 | CC(=O)N(O)CCC[C@H](NC(=O)[C@H](CCCN(O)C(C)=O)NC(=O)[C@@H](N)CCCN(O)C(C)=O)C(=O)NC(C(=O)O)C(O)C1SC(n2ccc(=O)n(C)c2=O)C(O)C1O (some centres unmarked) [Compound 24] | 18 | 18 | – | – | – | – | 18 | – | –
4 | CC(=O)N(O)CCC[C@H](N)C(=O)NC(C(=O)O)C(O)C1SC(n2ccc(=NC(N)=O)n(C)c2=O)C(O)C1O (some centres unmarked) [Compound 11] | – | – | – | – | 13 | 13 | 18 | 18 | –
5 | CC(=O)N(O)CCC[C@H](NC(=O)[C@H](CCCN(O)C(C)=O)NC(=O)[C@@H](N)CCCN(O)C(C)=O)C(=O)NC(C(=O)NC(C(=O)O)C(O)C1SC(n2ccc(=NC(N)=O)n(C)c2=O)C(O)C1O)C(C)O (some centres unmarked) [Compound 20] (H-[Orn(N5-OH,N5-Ac)][Orn(N5-OH,N5-Ac)][Orn(N5-OH,N5-Ac)][ξT][X1]-OH) | 14 | 17 | 15 | – | 13 | – | 14 | – | 25
